Experimental data taken from patent US9056099B2, “Compositions and methods for treating viral diseases” (NovaDrug, LLC, priority 2010, dated 2015).

Each compound was assayed on HCV (JFH-1) in Huh7-1 cells (assay: Assay for anti-HCV efficacy: JFH-1 HCV infection of Huh7-1 cultures, intracellular HCV RNA by RT-qPCR). Settings: Compound Example 1 series; % viral titer at 5 μM or 15 μM; HCV-infected Huh7-1 cultures.
Format: cell-based, Hepatitis C virus
Description: In the past, HCV studies involved mainly infected patients and chimpanzees. Recently, a robust HCV infection system was developed with cells derived from the Huh-7 human hepatoma cell line (see, for example, Yu et al., “Development of a cell-based hepatitis C virus infection fluorescent resonance energy transfer assay for high-throughput antiviral compound screening” Antimicrob Agents Chemother. 2009 53:4311-4319 for additional details regarding growing virus stocks, maintenance of the Huh-7 cells, infection parameters, and HCV titers determinations; and Yu & Uprichard “Cell-based hepatitis C virus infection fluorescence resonance energy transfer (FRET) assay for antiviral compound screening” Curr Protoc Microbiol. 2010; Chapter 17: Unit 17.5). Briefly, the assay is based on the unique JFH-1 HCV consensus cDNA derived from an HCV patient. Using reverse genetics, the infectious virus can be rescued from this HCV clone. The recovered viable JFH virus can be passaged serially in Huh-7 cells. For this reason, this system is amenable for testing the activity of potential drugs for their anti-HCV efficacy. The antiviral activity of the compounds described herein is tested in this system.
Initially, 6×10^3 Huh7-1 cells are incubated overnight in each well of collagen-coated BioCoat 96-well plates (BD Biosciences, Bedford, Mass.) in 0.2 mL 10% Medium composed of Dulbecco's modified Eagle's medium supplemented with 10% fetal bovine serum. Subsequently, at 2 day intervals, the cultures are replenished with fresh 0.2 mL 10% Medium. Once the cultures become confluent, they are continually replenished at 2 day intervals with fresh 0.2 mL 10% Medium that also includes 1% dimethyl sulfoxide (DMSO). After 20 days of these replenishments, the Huh7-1 cultures are incubated with fresh 1% Medium (same as 10% Medium except that the serum level is 1%) containing HCV at a multiplicity of infection (MOI) of 0.05 focus forming units (ffu)/cell. The HCV (JFH-1wt Huh7) stock titer is 1.5×10^5 ffu/mL. The next day (day 1 post-infection) and 2 days later (day 3 post-infection) the media are replenished with fresh 1% Medium containing the test compounds dissolved in DMSO. On the 5th day of treatment with the compounds, cell lysates are collected for RNA isolation and Real Time-quantitative Reverse Transcription Polymerase Chain Reaction (RT-qPCR) and culture media are collected for cytotoxicity analysis.
Total RNA is isolated from cells by the guanidine thiocyanate method using standard protocols. One μg RNA is used for cDNA synthesis using TaqMan reverse transcription reagents (Applied Biosystems, Foster City, Calif.) followed by real-time PCR using an Applied Biosystems 7300 real-time thermocycler. Illustrative thermal cycling consists of initial denaturation of 10 min at 95° C. followed by 40 cycles of denaturation (15 s at 95° C.) and annealing/extension (1 m at 60° C.). HCV and human glyceraldehyde-3-phosphate dehydrogenase (GAPDH) RNA levels are determined relative to a standard curve of serial dilutions of plasmid containing JFH-1 HCV or GAPDH cDNA. The PCR primers used to detect GAPDH and HCV are illustratively: GAPDH (NMX002046) 5′-GAAGGTGAAGGTCGGAGTC-3′ (SEQ ID NO: 5) (sense) and 5′-[…]-3′ (SEQ ID NO: 6) (anti-sense) JFH-1 HCV (AB047639) 5′-TCTGCGGAACCGGTGAGTA-3′ (SEQ ID NO: 7) (sense) and 5′-TCAGGCAGTACCACAAGGC-3′ (SEQ ID NO: 8) (anti-sense).
FIGS. 1-7 illustrate the intracellular HCV RNA levels when cultures are incubated with the selected test compounds at the doses shown. When HCV RNA levels are compared among the samples, the data may indicate that the compounds cause a dose dependent decrease in HCV RNA levels relative to the mock-treated (no compound added) HCV infected control.

SMILES | Activity (viral titer)
COc1cccc(C2CN(C(=O)c3ccccc3)C3CCN(Cc4ccc(C)cc4)CC23)c1 (stereo not shown) | + (≦60% viral titer at 15 μM)
COc1ccc(CN2CC[C@@H]3[C@H](C2)[C@@H](c2ccc(F)cc2)CN3C(=O)c2ccccc2)cc1 | ++ (≦60% viral titer at 5 μM)
Cc1cccc(CN2CCC3C(C2)C(c2ccsc2)CN3C(=O)c2ccccc2F)c1 (stereo not shown) | ++ (≦60% viral titer at 5 μM)
COc1cccc([C@H]2CN(C(=O)c3ccccc3)[C@@H]3CCN(Cc4cccc(F)c4)C[C@H]23)c1 | − (>60% viral titer at 15 μM (highest concentration tested))
O=C(c1ccncc1)N1CC(c2ccc(F)cc2)C2CN(Cc3ccsc3)CCC21 (stereo not shown) | − (>60% viral titer at 15 μM (highest concentration tested))
COc1cccc(CN2CCC3C(C2)C(c2ccc(F)cc2)CN3C(=O)c2ccccc2)c1 (stereo not shown) | +++ (≦30% viral titer at 5 μM)
O=C(c1ccccc1F)N1CC(c2ccsc2)C2CN(Cc3ccccc3)CCC21 (stereo not shown) | − (>60% viral titer at 15 μM (highest concentration tested))
COc1ccc(C2CN(C(=O)c3ccccc3)C3CCN(Cc4cccs4)CC23)cc1 (stereo not shown) | − (>60% viral titer at 15 μM (highest concentration tested))
O=C(c1cccnc1)N1C[C@H](c2ccc(F)cc2)[C@H]2CN(Cc3ccc(Cl)cc3)CC[C@H]21 | +++ (≦30% viral titer at 5 μM)
O=C(c1ccccc1F)N1C[C@H](c2ccsc2)[C@H]2CN(Cc3cccnc3)CC[C@H]21 | − (>60% viral titer at 15 μM (highest concentration tested))
O=C(c1ccccc1)N1CC(c2ccc(F)cc2)C2CN(Cc3ccccc3)CCC21 (stereo not shown) | ++ (≦60% viral titer at 5 μM)
COc1cccc([C@H]2CN(C(=O)c3ccccc3)[C@@H]3CCN(Cc4cccs4)C[C@H]23)c1 | − (>60% viral titer at 15 μM (highest concentration tested))
O=C(c1cccnc1)N1CC(c2ccc(F)cc2)C2CN(Cc3ccc(F)cc3)CCC21 (stereo not shown) | − (>60% viral titer at 15 μM (highest concentration tested))
O=C(c1ccccn1)N1CC(c2ccc(F)cc2)C2CN(Cc3ccccn3)CCC21 (stereo not shown) | − (>60% viral titer at 15 μM (highest concentration tested))
COc1ccc(CN2CCC3C(C2)C(c2ccc(F)cc2)CN3C(=O)c2ccccn2)cc1 (stereo not shown) | − (>60% viral titer at 15 μM (highest concentration tested))
O=C(c1ccncc1)N1CC(c2ccc(F)cc2)C2CN(Cc3cccs3)CCC21 (stereo not shown) | − (>60% viral titer at 15 μM (highest concentration tested))
O=C(c1cccs1)N1C[C@H](c2ccc(F)cc2)[C@H]2CN(Cc3ccccn3)CC[C@H]21 | − (>60% viral titer at 15 μM (highest concentration tested))
O=C(c1cccnc1)N1CC(c2ccc(F)cc2)C2CN(Cc3ccccc3Cl)CCC21 (stereo not shown) | − (>60% viral titer at 15 μM (highest concentration tested))
O=C(c1cccs1)N1C[C@H](c2ccc(F)cc2)[C@H]2CN(Cc3ccccc3)CC[C@H]21 | − (>60% viral titer at 15 μM (highest concentration tested))
COc1cccc([C@H]2CN(C(=O)c3ccccc3)[C@@H]3CCN(Cc4ccncc4)C[C@H]23)c1 | − (>60% viral titer at 15 μM (highest concentration tested))
O=C(c1ccccc1F)N1C[C@H](c2ccsc2)[C@H]2CN(Cc3ccc(F)cc3)CC[C@H]21 | +++ (≦30% viral titer at 5 μM)
COc1cccc([C@H]2CN(C(=O)c3ccccc3)[C@@H]3CCN(Cc4ccccc4F)C[C@H]23)c1 | + (≦60% viral titer at 15 μM)
O=C(c1ccccn1)N1CC(c2ccc(F)cc2)C2CN(Cc3cccnc3)CCC21 (stereo not shown) | − (>60% viral titer at 15 μM (highest concentration tested))
Cc1cccc(CN2CCC3C(C2)C(c2ccc(F)cc2)CN3C(=O)c2ccccn2)c1 (stereo not shown) | − (>60% viral titer at 15 μM (highest concentration tested))
O=C(c1ccncc1)N1CC(c2ccsc2)C2CN(Cc3cccs3)CCC21 (stereo not shown) | − (>60% viral titer at 15 μM (highest concentration tested))

Same assay, conditions: Compound Example 2 series; % viral titer at 5 μM or 15 μM; HCV-infected Huh7-1 cultures

SMILES | Activity (viral titer)
O=C(c1ccncc1)N1CC(c2ccc(F)cc2)C2CN(Cc3ccncc3)CCC21 (stereo not shown) | − (>60% viral titer at 15 μM (highest concentration tested))
Cc1ccccc1CN1CC[C@H]2[C@@H](C1)[C@H](c1ccsc1)CN2C(=O)c1ccc(F)cc1 | − (>60% viral titer at 15 μM (highest concentration tested))
O=C(c1ccncc1)N1C[C@@H](c2ccc(F)cc2)[C@@H]2CN(Cc3ccccc3Cl)CC[C@@H]21 | +++ (≦30% viral titer at 5 μM)
O=C(c1ccncc1)N1C[C@@H](c2ccsc2)[C@@H]2CN(Cc3ccccc3Cl)CC[C@@H]21 | − (>60% viral titer at 15 μM (highest concentration tested))
COc1cccc(CN2CC[C@H]3[C@@H](C2)[C@H](c2ccsc2)CN3C(=O)c2ccncc2)c1 | − (>60% viral titer at 15 μM (highest concentration tested))
O=C(c1ccccc1)N1C[C@@H](c2ccsc2)[C@@H]2CN(Cc3ccccc3Cl)CC[C@@H]21 | − (>60% viral titer at 15 μM (highest concentration tested))
O=C(c1ccc(F)cc1)N1C[C@@H](c2ccsc2)[C@@H]2CN(Cc3cccc(F)c3)CC[C@@H]21 | − (>60% viral titer at 15 μM (highest concentration tested))
Cc1nn(C)cc1CN1CC[C@H]2[C@@H](C1)[C@H](c1ccc(F)cc1)CN2C(=O)c1cccnc1 | − (>60% viral titer at 15 μM (highest concentration tested))
O=C(c1ccncc1)N1CC(c2ccc(F)cc2)C2CN(Cc3cccc(F)c3)CCC21 (stereo not shown) | − (>60% viral titer at 15 μM (highest concentration tested))
Cc1nn(C)cc1CN1CCC2C(C1)C(c1ccc(F)cc1)CN2C(=O)c1ccccc1 (stereo not shown) | + (≦60% viral titer at 15 μM)
O=C(c1ccncc1)N1C[C@@H](c2ccc(F)cc2)[C@@H]2CN(Cc3ccc(F)cc3)CC[C@@H]21 | − (>60% viral titer at 15 μM (highest concentration tested))
COc1cccc(CN2CC[C@H]3[C@@H](C2)[C@H](c2ccc(F)cc2)CN3C(=O)c2cccnc2)c1 | + (≦60% viral titer at 15 μM)
O=C(c1ccccn1)N1C[C@@H](c2ccc(F)cc2)[C@@H]2CN(Cc3ccc(F)cc3)CC[C@@H]21 | − (>60% viral titer at 15 μM (highest concentration tested))
O=C(c1ccccc1)N1CC(c2ccsc2)C2CN(Cc3cccnc3)CCC21 (stereo not shown) | − (>60% viral titer at 15 μM (highest concentration tested))
O=C(c1ccncc1)N1CC(c2ccc(F)cc2)C2CN(Cc3ccccc3)CCC21 (stereo not shown) | − (>60% viral titer at 15 μM (highest concentration tested))
O=C(c1ccccc1)N1C[C@@H](c2ccsc2)[C@@H]2CN(Cc3ccc(F)cc3)CC[C@@H]21 | ++ (≦60% viral titer at 5 μM)
O=C(c1ccc(F)cc1)N1C[C@@H](c2ccsc2)[C@@H]2CN(Cc3ccncc3)CC[C@@H]21 | − (>60% viral titer at 15 μM (highest concentration tested))
O=C(c1ccncc1)N1C[C@@H](c2ccsc2)[C@@H]2CN(Cc3cccc(F)c3F)CC[C@@H]21 | − (>60% viral titer at 15 μM (highest concentration tested))
O=C(c1ccncc1)N1C[C@@H](c2ccc(F)cc2)[C@@H]2CN(Cc3ccccn3)CC[C@@H]21 | − (>60% viral titer at 15 μM (highest concentration tested))
O=C(c1ccc(F)cc1)N1CC(c2ccsc2)C2CN(Cc3ccccc3F)CCC21 (stereo not shown) | − (>60% viral titer at 15 μM (highest concentration tested))
O=C(c1ccccc1)N1CC(c2ccsc2)C2CN(Cc3ccccc3)CCC21 (stereo not shown) | ++ (≦60% viral titer at 5 μM)
